According to PubChem BioAssay (NCI):
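Briefly, cells in 96-well plates were exposed to five compound concentrations for 48 h, and endpoints were estimated by linear interpolation. TGI: concentration producing complete growth inhibition.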

What follows are molecules tested on 786-0 renal (assay: NCI-60 cell line screen, 48 h).

First: Nc1cccc(/C=C/C(=O)N2CCN(CCOC(c3ccccc3)c3ccccc3)CC2)c1
Second: C[C@@H](c1ccccc1)N1CN(C(=O)OCc2ccccc2)C(C)(C)CC1=O
The TGI of the first is lower: 30.3 µM for the first, over 100 µM for the second.

`CC1CC2OC(=O)C(C)C2CC2(C)C(OC3OC(CO)C(O)C(O)C3O)OCCC12` (centres undefined) and `Clc1cc(Cl)cc(C=NC23CC4CC(CC(C4)C2)C3)c1` cannot be ordered by TGI: over 100 µM for the first, over 10 µM for the second.

Going from `CC1=CC(=O)c2ccccc2C1=O` to `CC(=O)Oc1ccc(-c2cc3ccccc3oc2=O)cc1`, the TGI rises from 28.5 µM to over 100 µM.

Work on `O=C(/C=C/c1ccc(O)c(-c2cc(C(=O)/C=C/c3ccc(O)cc3)c(O)cc2O)c1)c1ccc(O)cc1O` yielded a TGI of over 50 µM.

The molecules below were run on A498 renal (assay: NCI-60 cell line screen, 48 h).

Compared with `Nc1cccc(/C=C/C(=O)N2CCN(CCOC(c3ccccc3)c3ccccc3)CC2)c1`, `CC(=O)Oc1ccc(-c2cc3ccccc3oc2=O)cc1` is higher in TGI: 31.6 µM for the first, over 100 µM for the second.

`CC1CC2OC(=O)C(C)C2CC2(C)C(OC3OC(CO)C(O)C(O)C3O)OCCC12` (centres undefined) and `Clc1cc(Cl)cc(C=NC23CC4CC(CC(C4)C2)C3)c1` cannot be ordered by TGI: over 100 µM for the first, over 10 µM for the second.

Going from `CC1=CC(=O)c2ccccc2C1=O` to `O=C(/C=C/c1ccc(O)c(-c2cc(C(=O)/C=C/c3ccc(O)cc3)c(O)cc2O)c1)c1ccc(O)cc1O`, the TGI rises from 39.1 µM to over 50 µM.

What follows are molecules tested on A549 NSCLC (assay: NCI-60 cell line screen, 48 h).

First: Nc1cccc(/C=C/C(=O)N2CCN(CCOC(c3ccccc3)c3ccccc3)CC2)c1
Second: C[C@@H](c1ccccc1)N1CN(C(=O)OCc2ccccc2)C(C)(C)CC1=O
The TGI of the first is lower: 34.3 µM for the first, over 100 µM for the second.

`CC1CC2OC(=O)C(C)C2CC2(C)C(OC3OC(CO)C(O)C(O)C3O)OCCC12` (centres undefined) and `Clc1cc(Cl)cc(C=NC23CC4CC(CC(C4)C2)C3)c1` cannot be ordered by TGI: over 100 µM for the first, over 10 µM for the second.

Compared with `CC1=CC(=O)c2ccccc2C1=O`, `CC(=O)Oc1ccc(-c2cc3ccccc3oc2=O)cc1` is higher in TGI: 40.2 µM for the first, over 100 µM for the second.

With `O=C(/C=C/c1ccc(O)c(-c2cc(C(=O)/C=C/c3ccc(O)cc3)c(O)cc2O)c1)c1ccc(O)cc1O` the TGI was over 50 µM.

The molecules below were run on ACHN renal (assay: NCI-60 cell line screen, 48 h).

Going from `Nc1cccc(/C=C/C(=O)N2CCN(CCOC(c3ccccc3)c3ccccc3)CC2)c1` to `C[C@@H](c1ccccc1)N1CN(C(=O)OCc2ccccc2)C(C)(C)CC1=O`, the TGI rises from 31.6 µM to over 100 µM.

`CC1CC2OC(=O)C(C)C2CC2(C)C(OC3OC(CO)C(O)C(O)C3O)OCCC12` (centres undefined) and `Clc1cc(Cl)cc(C=NC23CC4CC(CC(C4)C2)C3)c1` cannot be ordered by TGI: over 100 µM for the first, over 10 µM for the second.

First: CC1=CC(=O)c2ccccc2C1=O
Second: CC(=O)Oc1ccc(-c2cc3ccccc3oc2=O)cc1
The TGI of the first is lower: 13.1 µM for the first, over 100 µM for the second.

`O=C(/C=C/c1ccc(O)c(-c2cc(C(=O)/C=C/c3ccc(O)cc3)c(O)cc2O)c1)c1ccc(O)cc1O` showed a TGI of over 50 µM.

The molecules below were run on BT-549 breast (assay: NCI-60 cell line screen, 48 h).

Going from `Nc1cccc(/C=C/C(=O)N2CCN(CCOC(c3ccccc3)c3ccccc3)CC2)c1` to `C[C@@H](c1ccccc1)N1CN(C(=O)OCc2ccccc2)C(C)(C)CC1=O`, the TGI rises from 29.2 µM to over 100 µM.

`CC1CC2OC(=O)C(C)C2CC2(C)C(OC3OC(CO)C(O)C(O)C3O)OCCC12` (centres undefined) and `Clc1cc(Cl)cc(C=NC23CC4CC(CC(C4)C2)C3)c1` cannot be ordered by TGI: 29.4 µM for the first, over 10 µM for the second.

Going from `CC1=CC(=O)c2ccccc2C1=O` to `CC(=O)Oc1ccc(-c2cc3ccccc3oc2=O)cc1`, the TGI rises from 25.6 µM to over 100 µM.

Work on `O=C(/C=C/c1ccc(O)c(-c2cc(C(=O)/C=C/c3ccc(O)cc3)c(O)cc2O)c1)c1ccc(O)cc1O` yielded a TGI of over 50 µM.

Each molecule was assayed on CAKI-1 renal (assay: NCI-60 cell line screen, 48 h).

Compared with `Nc1cccc(/C=C/C(=O)N2CCN(CCOC(c3ccccc3)c3ccccc3)CC2)c1`, `C[C@@H](c1ccccc1)N1CN(C(=O)OCc2ccccc2)C(C)(C)CC1=O` is higher in TGI: 34.8 µM for the first, over 100 µM for the second.

`CC1CC2OC(=O)C(C)C2CC2(C)C(OC3OC(CO)C(O)C(O)C3O)OCCC12` (centres undefined) and `Clc1cc(Cl)cc(C=NC23CC4CC(CC(C4)C2)C3)c1` cannot be ordered by TGI: over 100 µM for the first, over 10 µM for the second.

Compared with `CC1=CC(=O)c2ccccc2C1=O`, `O=C(/C=C/c1ccc(O)c(-c2cc(C(=O)/C=C/c3ccc(O)cc3)c(O)cc2O)c1)c1ccc(O)cc1O` is higher in TGI: 29.7 µM for the first, over 50 µM for the second.

The molecules below were run on CCRF-CEM leukemia (assay: NCI-60 cell line screen, 48 h).

First: Nc1cccc(/C=C/C(=O)N2CCN(CCOC(c3ccccc3)c3ccccc3)CC2)c1
Second: C[C@@H](c1ccccc1)N1CN(C(=O)OCc2ccccc2)C(C)(C)CC1=O
The TGI of the first is lower: 26.4 µM for the first, over 100 µM for the second.

`CC1CC2OC(=O)C(C)C2CC2(C)C(OC3OC(CO)C(O)C(O)C3O)OCCC12` (centres undefined) and `Clc1cc(Cl)cc(C=NC23CC4CC(CC(C4)C2)C3)c1` cannot be ordered by TGI: over 100 µM for the first, over 10 µM for the second.

First: CC1=CC(=O)c2ccccc2C1=O
Second: CC(=O)Oc1ccc(-c2cc3ccccc3oc2=O)cc1
The TGI of the first is lower: 5.76 µM for the first, over 100 µM for the second.

For `O=C(/C=C/c1ccc(O)c(-c2cc(C(=O)/C=C/c3ccc(O)cc3)c(O)cc2O)c1)c1ccc(O)cc1O`, the TGI was 37.3 µM.

What follows are molecules tested on COLO 205 colon (assay: NCI-60 cell line screen, 48 h).

Going from `Nc1cccc(/C=C/C(=O)N2CCN(CCOC(c3ccccc3)c3ccccc3)CC2)c1` to `C[C@@H](c1ccccc1)N1CN(C(=O)OCc2ccccc2)C(C)(C)CC1=O`, the TGI rises from 33.1 µM to over 100 µM.

`CC1CC2OC(=O)C(C)C2CC2(C)C(OC3OC(CO)C(O)C(O)C3O)OCCC12` (centres undefined) and `Clc1cc(Cl)cc(C=NC23CC4CC(CC(C4)C2)C3)c1` cannot be ordered by TGI: over 100 µM for the first, over 10 µM for the second.

Compared with `CC1=CC(=O)c2ccccc2C1=O`, `CC(=O)Oc1ccc(-c2cc3ccccc3oc2=O)cc1` is higher in TGI: 31.8 µM for the first, over 100 µM for the second.

Molecule `O=C(/C=C/c1ccc(O)c(-c2cc(C(=O)/C=C/c3ccc(O)cc3)c(O)cc2O)c1)c1ccc(O)cc1O` has a TGI of 24 µM.

Each molecule was assayed on DU-145 prostate (assay: NCI-60 cell line screen, 48 h).

Compared with `Nc1cccc(/C=C/C(=O)N2CCN(CCOC(c3ccccc3)c3ccccc3)CC2)c1`, `C[C@@H](c1ccccc1)N1CN(C(=O)OCc2ccccc2)C(C)(C)CC1=O` is higher in TGI: 28.5 µM for the first, over 100 µM for the second.

`CC1CC2OC(=O)C(C)C2CC2(C)C(OC3OC(CO)C(O)C(O)C3O)OCCC12` (centres undefined) and `Clc1cc(Cl)cc(C=NC23CC4CC(CC(C4)C2)C3)c1` cannot be ordered by TGI: over 100 µM for the first, over 10 µM for the second.

Compared with `CC1=CC(=O)c2ccccc2C1=O`, `CC(=O)Oc1ccc(-c2cc3ccccc3oc2=O)cc1` is higher in TGI: 29.4 µM for the first, over 100 µM for the second.

`O=C(/C=C/c1ccc(O)c(-c2cc(C(=O)/C=C/c3ccc(O)cc3)c(O)cc2O)c1)c1ccc(O)cc1O` was tested, and the TGI was over 50 µM.

What follows are molecules tested on EKVX NSCLC (assay: NCI-60 cell line screen, 48 h).

First: Nc1cccc(/C=C/C(=O)N2CCN(CCOC(c3ccccc3)c3ccccc3)CC2)c1
Second: C[C@@H](c1ccccc1)N1CN(C(=O)OCc2ccccc2)C(C)(C)CC1=O
The TGI of the first is lower: 36.2 µM for the first, over 100 µM for the second.

`CC1CC2OC(=O)C(C)C2CC2(C)C(OC3OC(CO)C(O)C(O)C3O)OCCC12` (centres undefined) and `Clc1cc(Cl)cc(C=NC23CC4CC(CC(C4)C2)C3)c1` cannot be ordered by TGI: over 100 µM for the first, over 10 µM for the second.

First: CC1=CC(=O)c2ccccc2C1=O
Second: CC(=O)Oc1ccc(-c2cc3ccccc3oc2=O)cc1
The TGI of the first is lower: 31.8 µM for the first, over 100 µM for the second.

`O=C(/C=C/c1ccc(O)c(-c2cc(C(=O)/C=C/c3ccc(O)cc3)c(O)cc2O)c1)c1ccc(O)cc1O` gave a TGI of over 50 µM.

What follows are molecules tested on HCC-2998 colon (assay: NCI-60 cell line screen, 48 h).

`CC1CC2OC(=O)C(C)C2CC2(C)C(OC3OC(CO)C(O)C(O)C3O)OCCC12` (centres undefined) and `C[C@@H](c1ccccc1)N1CN(C(=O)OCc2ccccc2)C(C)(C)CC1=O` cannot be ordered by TGI: over 100 µM for the first, over 100 µM for the second.

Going from `CC1=CC(=O)c2ccccc2C1=O` to `CC(=O)Oc1ccc(-c2cc3ccccc3oc2=O)cc1`, the TGI rises from 30.7 µM to over 100 µM.

`Clc1cc(Cl)cc(C=NC23CC4CC(CC(C4)C2)C3)c1` showed a TGI of over 10 µM.

These molecules were tested on HCT-116 colon (assay: NCI-60 cell line screen, 48 h).

Going from `Nc1cccc(/C=C/C(=O)N2CCN(CCOC(c3ccccc3)c3ccccc3)CC2)c1` to `C[C@@H](c1ccccc1)N1CN(C(=O)OCc2ccccc2)C(C)(C)CC1=O`, the TGI rises from 28.9 µM to over 100 µM.

`CC1CC2OC(=O)C(C)C2CC2(C)C(OC3OC(CO)C(O)C(O)C3O)OCCC12` (centres undefined) and `Clc1cc(Cl)cc(C=NC23CC4CC(CC(C4)C2)C3)c1` cannot be ordered by TGI: over 100 µM for the first, over 10 µM for the second.

First: CC1=CC(=O)c2ccccc2C1=O
Second: CC(=O)Oc1ccc(-c2cc3ccccc3oc2=O)cc1
The TGI of the first is lower: 5.33 µM for the first, over 100 µM for the second.

`O=C(/C=C/c1ccc(O)c(-c2cc(C(=O)/C=C/c3ccc(O)cc3)c(O)cc2O)c1)c1ccc(O)cc1O` showed a TGI of 23.7 µM.

Each molecule was assayed on HCT-15 colon (assay: NCI-60 cell line screen, 48 h).

First: Nc1cccc(/C=C/C(=O)N2CCN(CCOC(c3ccccc3)c3ccccc3)CC2)c1
Second: C[C@@H](c1ccccc1)N1CN(C(=O)OCc2ccccc2)C(C)(C)CC1=O
The TGI of the first is lower: 31.5 µM for the first, over 100 µM for the second.

`CC1CC2OC(=O)C(C)C2CC2(C)C(OC3OC(CO)C(O)C(O)C3O)OCCC12` (centres undefined) and `Clc1cc(Cl)cc(C=NC23CC4CC(CC(C4)C2)C3)c1` cannot be ordered by TGI: over 100 µM for the first, over 10 µM for the second.

Compared with `CC1=CC(=O)c2ccccc2C1=O`, `CC(=O)Oc1ccc(-c2cc3ccccc3oc2=O)cc1` is higher in TGI: 14.1 µM for the first, over 100 µM for the second.

For `O=C(/C=C/c1ccc(O)c(-c2cc(C(=O)/C=C/c3ccc(O)cc3)c(O)cc2O)c1)c1ccc(O)cc1O`, the TGI was over 50 µM.

These molecules were tested on HL-60(TB) leukemia (assay: NCI-60 cell line screen, 48 h).

First: Nc1cccc(/C=C/C(=O)N2CCN(CCOC(c3ccccc3)c3ccccc3)CC2)c1
Second: C[C@@H](c1ccccc1)N1CN(C(=O)OCc2ccccc2)C(C)(C)CC1=O
The TGI of the first is lower: 32 µM for the first, over 100 µM for the second.

`CC1CC2OC(=O)C(C)C2CC2(C)C(OC3OC(CO)C(O)C(O)C3O)OCCC12` (centres undefined) and `Clc1cc(Cl)cc(C=NC23CC4CC(CC(C4)C2)C3)c1` cannot be ordered by TGI: over 100 µM for the first, over 10 µM for the second.

First: CC1=CC(=O)c2ccccc2C1=O
Second: CC(=O)Oc1ccc(-c2cc3ccccc3oc2=O)cc1
The TGI of the first is lower: 5.94 µM for the first, over 100 µM for the second.

Molecule `O=C(/C=C/c1ccc(O)c(-c2cc(C(=O)/C=C/c3ccc(O)cc3)c(O)cc2O)c1)c1ccc(O)cc1O` has a TGI of over 50 µM.

These molecules were tested on HOP-62 NSCLC (assay: NCI-60 cell line screen, 48 h).

Going from `Nc1cccc(/C=C/C(=O)N2CCN(CCOC(c3ccccc3)c3ccccc3)CC2)c1` to `C[C@@H](c1ccccc1)N1CN(C(=O)OCc2ccccc2)C(C)(C)CC1=O`, the TGI rises from 32.4 µM to over 100 µM.

Compared with `CC1CC2OC(=O)C(C)C2CC2(C)C(OC3OC(CO)C(O)C(O)C3O)OCCC12` (centres undefined), `CC1=CC(=O)c2ccccc2C1=O` is lower in TGI: over 100 µM for the first, 29.8 µM for the second.

In the case of `O=C(/C=C/c1ccc(O)c(-c2cc(C(=O)/C=C/c3ccc(O)cc3)c(O)cc2O)c1)c1ccc(O)cc1O`, the TGI is reported as over 50 µM.
